Patent publication US12552825B2 (Zikani Therapeutics, Inc., priority 2019, dated 2026)
Converted amounts (≈) assume the structure as drawn.

What was measured:
Format in all cases: cell-based
S. aureus MP-12 = assay: microbe, parasite or virus in culture; details: Staphylococcus aureus, MP12, read-out: MIC S. aureus MP-12
E. coli MP-4 = assay: MIC determination by CLSI broth dilution, E. coli MP-4; details: Escherichia coli, MP4, CLSI broth dilution; strain MP-4
K. pneumoniae MP-546 = assay: MIC determination by CLSI broth dilution, K. pneumoniae MP-546; details: Klebsiella pneumoniae, MP546, CLSI broth dilution; strain MP-546
P. aeruginosa MP-3 = assay: MIC determination by CLSI broth dilution, P. aeruginosa MP-3; details: Pseudomonas aeruginosa, MP3, strain MP-3
A. baumannii MP-15 = assay: MIC determination by CLSI broth dilution, A. baumannii MP-15; details: Acinetobacter baumannii, MP15, strain MP-15, read-out: MIC A. baumanii MP-15

Compound | MIC (S. aureus MP-12) | MIC (E. coli MP-4) | MIC (K. pneumoniae MP-546) | MIC (P. aeruginosa MP-3) | MIC (A. baumannii MP-15)
CO[C@]1(C)C[C@@H](C)CN[C@@H](CN(C)C)COC(=O)C(C)(C)C(=O)[C@H](C)[C@H]1O[C@@H]1O[C@H](C)C[C@H](N(C)C)[C@H]1O [Compound 17, (3S,6R,8R,9R,10R)-9-(((2S,3R,4S,6R)-4-(dimethylamino)-3-hydroxy-6-methyltetrahydro-2H-pyran-2-yl)oxy)-3-((dimethylamino)methyl)-8-methoxy-6,8,10,12,12-pentamethyl-1-oxa-4-azacyclotridecane-11,13-dione] | > 32 µg/mL | > 32 µg/mL | > 32 µg/mL | > 32 µg/mL | > 32 µg/mL
CCN(CC)CCC[C@H]1COC(=O)C(C)(C)C(=O)[C@H](C)[C@@H](O[C@@H]2O[C@H](C)C[C@H](N(C)C)[C@H]2O)[C@](C)(OC)C[C@@H](C)CN1C [Compound 19, (3S,6R,8R,9R,10R)-3-(3-(diethylamino)propyl)-9-(((2S,3R,4S,6R)-4-(dimethylamino)-3-hydroxy-6-methyltetrahydro-2H-pyran-2-yl)oxy)-8-methoxy-4,6,8,10,12,12-hexamethyl-1-oxa-4-azacyclotridecane-11,13-dione] | 4 to 32 µg/mL (≈ 6.52 to 52.1 µM) | < 4 µg/mL | < 4 µg/mL | > 32 µg/mL | > 32 µg/mL
CCN(C)CCC[C@H]1COC(=O)C(C)(C)C(=O)[C@H](C)[C@@H](O[C@@H]2O[C@H](C)C[C@H](N(C)C)[C@H]2O)[C@](C)(OC)C[C@@H](C)CN1C [Compound 20, (3S,6R,8R,9R,10R)-9-(((2S,3R,4S,6R)-4-(dimethylamino)-3-hydroxy-6-methyltetrahydro-2H-pyran-2-yl)oxy)-3-(3-(ethyl(methyl)amino)propyl)-8-methoxy-4,6,8,10,12,12-hexamethyl-1-oxa-4-azacyclotridecane-11,13-dione] | 4 to 32 µg/mL (≈ 6.67 to 53.3 µM) | < 4 µg/mL | < 4 µg/mL | > 32 µg/mL | > 32 µg/mL
CCC(O)C(C)CN1CCC(C[C@@H]2COC(=O)C(C)(C)C(=O)[C@H](C)[C@@H](O[C@@H]3O[C@H](C)C[C@H](N(C)C)[C@H]3O)[C@](C)(OC)C[C@@H](C)CN2C)CC1 (some centres unmarked) [Compound 35] | 4 to 32 µg/mL (≈ 5.73 to 45.8 µM) | < 4 µg/mL | < 4 µg/mL | > 32 µg/mL | > 32 µg/mL
CO[C@]1(C)C[C@@H](C)CN(C)[C@H](CC2CCN(CC(C)(C)C)CC2)C(C)(C)OC(=O)C(C)(C)C(=O)[C@H](C)[C@H]1O[C@@H]1O[C@H](C)C[C@H](N(C)C)[C@H]1O [Compound 36] | 4 to 32 µg/mL (≈ 5.75 to 46 µM) | < 4 µg/mL | 4 to 32 µg/mL (≈ 5.75 to 46 µM) | > 32 µg/mL | 4 to 32 µg/mL (≈ 5.75 to 46 µM)
CO[C@]1(C)C[C@@H](C)CN(C)[C@@H](CC2CCN(CC(C)(C)C)CC2)C(C)(C)OC(=O)C(C)(C)C(=O)[C@H](C)[C@H]1O[C@@H]1O[C@H](C)C[C@H](N(C)C)[C@H]1O [Compound 37] | > 32 µg/mL | 4 to 32 µg/mL (≈ 5.75 to 46 µM) | > 32 µg/mL | > 32 µg/mL | > 32 µg/mL
CCCN1CCC(C[C@@H]2[C@@H](C)OC(=O)C(C)(C)C(=O)[C@H](C)[C@@H](O[C@@H]3O[C@H](C)C[C@H](N(C)C)[C@H]3O)[C@](C)(OC)C[C@@H](C)CN2C)CC1 [Compound 38] | > 32 µg/mL | < 4 µg/mL | < 4 µg/mL | > 32 µg/mL | > 32 µg/mL
CO[C@]1(C)C[C@@H](C)CN(C)[C@H](CC2CCN(CC(C)(C)C)CC2)[C@@H](C)OC(=O)C(C)(C)C(=O)[C@H](C)[C@H]1O[C@@H]1O[C@H](C)C[C@H](N(C)C)[C@H]1O [Compound 39] | > 32 µg/mL | < 4 µg/mL | 4 to 32 µg/mL (≈ 5.87 to 46.9 µM) | > 32 µg/mL | > 32 µg/mL
CO[C@]1(C)C[C@@H](C)CN(C)[C@H](CC2CCN(CC[C@@H](C)CCC=C(C)C)CC2)[C@@H](C)OC(=O)C(C)(C)C(=O)[C@H](C)[C@H]1O[C@@H]1O[C@H](C)C[C@H](N(C)C)[C@H]1O [Compound 40] | 4 to 32 µg/mL (≈ 5.33 to 42.7 µM) | < 4 µg/mL | 4 to 32 µg/mL (≈ 5.33 to 42.7 µM) | > 32 µg/mL | 4 to 32 µg/mL (≈ 5.33 to 42.7 µM)
CCCN1CCC(C[C@H]2COC(=O)C(C)(C)C(=O)[C@H](C)[C@@H](O[C@@H]3O[C@H](C)C[C@H](N(C)C)[C@H]3O)[C@](C)(OC)C[C@@H](C)CN2C)CC1 [Compound 41] | > 32 µg/mL | 4 to 32 µg/mL (≈ 6.25 to 50 µM) | 4 to 32 µg/mL (≈ 6.25 to 50 µM) | > 32 µg/mL | > 32 µg/mL
CCCN1CCC(C[C@@H]2COC(=O)C(C)(C)C(=O)[C@H](C)[C@@H](O[C@@H]3O[C@H](C)C[C@H](N(C)C)[C@H]3O)[C@](C)(OC)C[C@@H](C)CN2C)CC1 [Compound 42] | 4 to 32 µg/mL (≈ 6.25 to 50 µM) | < 4 µg/mL | < 4 µg/mL | > 32 µg/mL | > 32 µg/mL
CO[C@]1(C)C[C@@H](C)CN(C)[C@@H](CC2CCN(C(=O)C3CC3)CC2)COC(=O)C(C)(C)C(=O)[C@H](C)[C@H]1O[C@@H]1O[C@H](C)C[C@H](N(C)C)[C@H]1O [Compound 44] | 4 to 32 µg/mL (≈ 6.01 to 48.1 µM) | > 32 µg/mL | > 32 µg/mL | > 32 µg/mL | > 32 µg/mL
CO[C@]1(C)C[C@@H](C)CN(C)[C@H](CC2CCN(C(=O)C3CC3)CC2)COC(=O)C(C)(C)C(=O)[C@H](C)[C@H]1O[C@@H]1O[C@H](C)C[C@H](N(C)C)[C@H]1O [Compound 45] | 4 to 32 µg/mL (≈ 6.01 to 48.1 µM) | 4 to 32 µg/mL (≈ 6.01 to 48.1 µM) | 4 to 32 µg/mL (≈ 6.01 to 48.1 µM) | > 32 µg/mL | > 32 µg/mL
CCCN1CCC(C[C@H]2N(C)C[C@H](C)C[C@@](C)(OC)[C@H](O[C@@H]3O[C@H](C)C[C@H](N(C)C)[C@H]3O)[C@@H](C)C(=O)C(C)(C)C(=O)OC2(C)C)CC1 [Compound 46] | 4 to 32 µg/mL (≈ 5.99 to 47.9 µM) | < 4 µg/mL | < 4 µg/mL | > 32 µg/mL | > 32 µg/mL
CO[C@]1(C)C[C@@H](C)CN(C)[C@H](CC2CCN(C(C)C)CC2)C(C)(C)OC(=O)C(C)(C)C(=O)[C@H](C)[C@H]1O[C@@H]1O[C@H](C)C[C@H](N(C)C)[C@H]1O [Compound 47] | 4 to 32 µg/mL (≈ 5.99 to 47.9 µM) | < 4 µg/mL | 4 to 32 µg/mL (≈ 5.99 to 47.9 µM) | > 32 µg/mL | > 32 µg/mL
CCCN1CCC(C[C@@H]2N(C)C[C@H](C)C[C@@](C)(OC)[C@H](O[C@@H]3O[C@H](C)C[C@H](N(C)C)[C@H]3O)[C@@H](C)C(=O)C(C)(C)C(=O)OC2(C)C)CC1 [Compound 48] | > 32 µg/mL | < 4 µg/mL | 4 to 32 µg/mL (≈ 5.99 to 47.9 µM) | > 32 µg/mL | > 32 µg/mL
CO[C@]1(C)C[C@@H](C)CN(C)[C@H](CC2CCN(C)CC2)[C@@H](C)OC(=O)C(C)(C)C(=O)[C@H](C)[C@H]1O[C@@H]1O[C@H](C)C[C@H](N(C)C)[C@H]1O [Compound 49] | > 32 µg/mL | < 4 µg/mL | 4 to 32 µg/mL (≈ 6.39 to 51.1 µM) | > 32 µg/mL | > 32 µg/mL
CO[C@]1(C)C[C@@H](C)CN(C)[C@H](CC2CCN(CC(C)(C)C)CC2)COC(=O)C(C)(C)C(=O)[C@H](C)[C@H]1O[C@@H]1O[C@H](C)C[C@H](N(C)C)[C@H]1O [Compound 54] | 4 to 32 µg/mL (≈ 5.99 to 47.9 µM) | < 4 µg/mL | < 4 µg/mL | > 32 µg/mL | > 32 µg/mL
CO[C@]1(C)C[C@@H](C)CN(C)[C@@H](CC2CCN(CC(C)(C)C)CC2)COC(=O)C(C)(C)C(=O)[C@H](C)[C@H]1O[C@@H]1O[C@H](C)C[C@H](N(C)C)[C@H]1O [Compound 66] | > 32 µg/mL | 4 to 32 µg/mL (≈ 5.99 to 47.9 µM) | 4 to 32 µg/mL (≈ 5.99 to 47.9 µM) | > 32 µg/mL | > 32 µg/mL
